Where a chain is given by its changes, count along the chain named. Where “and” joins values, the source holds several entries; their conditions need not be identical. Identical values can stand only once.
Tests used:
[1] = target: T1, N151A mutant mouse 5-HT3ASR (Mus musculus, UniProt P23979, N152A); experiment: biochemical
T1 sequence (P23979 24-483 isoform P23979-2 N152A): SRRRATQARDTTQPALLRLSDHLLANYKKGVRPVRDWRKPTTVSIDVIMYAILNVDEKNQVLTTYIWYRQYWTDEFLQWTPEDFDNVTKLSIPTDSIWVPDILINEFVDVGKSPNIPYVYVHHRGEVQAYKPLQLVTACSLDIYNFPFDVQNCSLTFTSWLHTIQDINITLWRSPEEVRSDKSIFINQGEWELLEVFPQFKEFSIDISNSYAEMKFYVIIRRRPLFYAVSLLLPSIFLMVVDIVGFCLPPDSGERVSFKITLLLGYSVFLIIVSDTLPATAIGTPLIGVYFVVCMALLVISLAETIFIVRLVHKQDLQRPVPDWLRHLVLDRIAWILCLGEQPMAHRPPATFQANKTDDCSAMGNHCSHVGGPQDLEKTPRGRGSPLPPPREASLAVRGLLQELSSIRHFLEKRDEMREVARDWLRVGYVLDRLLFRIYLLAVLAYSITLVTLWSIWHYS

[2] = target: T2, K153A mutant mouse 5-HT3ASR (Mus musculus, UniProt P23979, K154A); experiment: biochemical
T2 sequence (P23979 24-483 isoform P23979-2 K154A): T1 sequence (P23979 24-483 isoform P23979-2 N152A) with A129N, K131A

[3] = target: T3, Y142A mutant mouse 5-HT3ASR (Mus musculus, UniProt P23979, Y143A); experiment: Inhibition of [^3H]granisetron binding, Y142A receptor; details: for relative increase in Ki, mutant vs wildtype: Y142A vs wildtype
T3 sequence (P23979 24-483 isoform P23979-2 Y143A): T1 sequence (P23979 24-483 isoform P23979-2 N152A) with Y120A, A129N

wildtype mouse 5-HT3ASR = target: T4, wildtype mouse 5-HT3ASR (Mus musculus, UniProt P23979); experiment: biochemical
T4 sequence (P23979 24-483 isoform P23979-2 limits assumed): T1 sequence (P23979 24-483 isoform P23979-2 N152A) with A129N

[4] = target: T5, V143A mutant mouse 5-HT3ASR (Mus musculus, UniProt P23979, V144A); experiment: biochemical
T5 sequence (P23979 24-483 isoform P23979-2 V144A): T1 sequence (P23979 24-483 isoform P23979-2 N152A) with V121A, A129N

[5] = target: T6, E148A mutant mouse 5-HT3ASR (Mus musculus, UniProt P23979, E149A); experiment: biochemical
T6 sequence (P23979 24-483 isoform P23979-2 E149A): T1 sequence (P23979 24-483 isoform P23979-2 N152A) with E126A, A129N

| SMILES | Ki [1] | Ki [2] | Ki [3] | relative increase in Ki, mutant vs wildtype [3] | Ki (wildtype mouse 5-HT3ASR) | Ki [4] | Ki [5] |
| --- | --- | --- | --- | --- | --- | --- | --- |
| COc1cc2c3cc1Oc1cc(ccc1O)C[C@@H]1c4c(cc(OC)c(O)c4Oc4ccc(cc4)C[C@@H]3N(C)CC2)CC[N+]1(C)C [d-tc, d-tubocurarine] | 9.3 ± 1.4 nM | 17 ± 3 nM | 39 ± 19 nM | 6.5 ± 1.5 fold and 6.5 fold | 6 ± 2.1 nM | 22 ± 2.6 nM | 14 ± 1.7 nM |
| c1ccc(Cn2c(N3CCNCC3)nc3ccccc32)cc1 [lerisetron] | 3.7 ± 0.62 nM | 3 ± 0.66 nM | 130 ± 28 nM | 160 ± 37 fold and 160 fold | 0.8 ± 0.19 nM | 1.5 ± 0.41 nM | 2.8 ± 0.53 nM |
